Measured values taken from patent publication US8940911B2, “Squarylated lactones inhibitors for bacterial biofilm formation” (Syracuse University, priority 2012, dated 2015).

System: SK-N-SH cells
Test: Human neuroblastoma cancer cell cytotoxicity assay (CCK-8)
Assay type: cell-based
Conditions: 200 or 300 μM, 1 h exposure, read after 24 h
Procedure: After examining the efficacy of SHLs at inhibiting biofilm, dispersing established biofilms, and reducing the maximum thickness of biofilms without being toxic to the planktonic bacterial cells, we tested the cytotoxicity of the key potent SHLs on the human neuroblastoma cancer cell line SK-N-SH. These studies were conducted such that the SK-N-SH cells were subjected to the maximum concentrations of the key potent SHLs tested on bacteria.
A previously grown T-flask of SK-N-SH cells was observed under a microscope to confirm the confluence of the cells. Next, the old media was discarded and the adherent cells were washed with ˜10 mL of MEM(−). The wash was discarded and 2 mL of Trypsin-EDTA solution was added to the T-flask and incubated for 10 minutes at 37° C. and at 5% atmosphere of CO2. Afterwards, the flask was viewed under a microscope to determine if the cells were suspended in the solution. Subsequently, ˜8 mL of MEM(+) was added to the flask and carefully mixed via pipette to break-up any large clusters of cells. 100 μL of the culture was added to an Eppendorf tube and combined with 100 μL of […]. A hemocytometer and glass cover slide was carefully cleaned with a kimwipe and ethanol. Placing the glass cover slide on top of the hemocytometer, 10 μL of the mixture in the Eppendorf tube was pipetted into the two grooves on the hemocytometer, avoiding the generation of bubbles. The hemocytometer was viewed one chamber at time under a microscope and the live cells were counted using the hemocytometer cell counting method. The remaining cell culture in the T-flask was diluted with MEM(+) to 25 mL such that there would be ˜5000 cells/mL. 100 μL of the culture was placed into wells on a 96 well plate such that one column had only MEM(+) and the wells on the outer perimeter of the plate were left empty. Four plates were made in this manner so that there would be plates for times 0, 24, 48, and 72 h. The plate was then incubated for 24 h at 37° C. and at 5% atmosphere of CO2. Subsequently, the old media was discarded and the wells were subjected to either 200 μM or 300 μM solutions of compounds 3, 4, 8, and 46 in MEM(+) (100 μL) such that one column still contained only MEM(+) and one column contained MEM(+) and untreated cells. The plate was incubated for 1 h and then the solutions were discarded and fresh MEM(+) media was added (100 μL). Each plate was then incubated for the desired time (0, 24, 48, or 72 h). After incubation, 10 μL of CCK-8 solution was added to each well and then the plate was incubated for 2 h followed by reading the OD450 with a microplate reader.

| SMILES | cytotoxicity on human neuroblastoma cancer cells (in words) |
| --- | --- |
| C=Cc1c(NC2CCOC2=O)c(=O)c1=O (centres unmarked) [vinyl-SHL 3] | toxic |
| CCCCOc1c(NC2CCCC2)c(=O)c1=O [butoxy-SCPA 46] | toxic |
